Source: US20210205292A1, “INHIBITORS OF CREB-CBP INTERACTION FOR TREATMENT OF LEUKEMIA” (The Board of Trustees of the Leland Stanford Junior …, priority 2016, published 2021)

Columns and labels:
[1] = biological target: T1, KIX domain of CBP, mutant lacking amino acids 586-602 (GST fusion) (Homo sapiens, UniProt Q92793); assay: Biacore surface plasmon resonance, binding to KIX deletion mutant versus native KIX; conditions: 5 μM
T1 construct: spans CBP amino acids 586-666; made in house; host or cells: E. coli BL21(DE3)
Procedure: KIX domain mutants were created by standard cloning and mutagenesis methods in the pGEX4T3 vector (GE Healthcare Life Sciences). GST-KIX fusion proteins were expressed in BL21(DE3-) cells (New England Biolabs) following induction with 1 mM IPTG for 6 hours at 37 degrees. GST-KIX and its mutants were purified with the B-PER GST Fusion Protein Spin Purification Kit (Thermo Scientific/Pierce). Surface Plasmon Resonance (Biacore) analysis was performed on a GE Biacore 3000 surface plasmon resonance instrument in collaboration with the Stanford Protein and Nucleic Acid (PAN) Facility.
To confirm the binding of Compound A to the KIX domain of CBP, the KIX domain was expressed and purified as a fusion protein with Glutathione-S-Transferase (GST). Binding of Compound A to the KIX domain and two KIX domain mutants in which residues critical for CREB binding were altered or removed (Arg-600 mutated to Alanine or deletion of amino acids 586-602) was determined by Surface Plasmon Resonance (Biacore) analysis (FIG. 1, panel B). Mutation of Arginine-600 to Alanine reduced binding of Compound A by ˜45%, while a KIX domain mutant lacking amino acids 586-602 reduced binding by ˜70%. […] A hypothetical binding model between Compound A and CBP KIX domain is shown (FIG. 1, panel C). […]

[2] = test system: KG-1 cells; assay: Chemotherapy combination, isobolograms in KG-1 cells; type: cell-based; conditions: 48 hours
Procedure: AML cell lines were purchased from ATCC and maintained with IMDM (Gibco) supplemented with 10% FBS (Fisher Scientific) and 1% PSG (Gibco). Cells were plated at a density of 2-4×10^5 cells/ml, and treated with various doses of Compound A in 0.1% DMSO or 0.1% DMSO alone. Cell counts and viability were determined using the Vi-CELL XR Cell Viability Analyzer (Beckman Coulter). HL-60 and KG-1 cells overexpressing CREB or CBP were generated using lentiviral gene delivery with subsequent puromycin selection and FACs sorting for GFP. CREB knockdown was achieved by infecting cells with a lentivirus expressing the shRNA sequence 5′-[…]-3′ (SEQ ID NO:). For chemotherapy combination experiments, combination index values were calculated using median effects analysis on Calcusyn software. Human patient bone marrow samples were cultured in DMEM plus 20% FBS and 1×PSG, supplemented with recombinant GM-CSF (20 ng/ml), G-CSF (20 ng/ml), SCF (50 ng/ml), IL-3 (20 ng/ml), and IL-6 (10 ng/ml). Cells were plated at a concentration of 1×10^5 cells/ml in a 12-well plate. Vehicle (0.1% DMSO) or Compound A (2 μM) was added for up to 72 hours. All samples contained >85% AML blasts and were not sorted prior to performing experiments. Immunostaining and flow cytometry analyses were performed according to standard procedures. All antibodies were purchased from BD Biosciences. Single cell suspensions of bone marrow culture were subsequently analyzed on a D×P10 flow cytometer (Cytek). Bone marrow from AML patients were collected through voluntary patient participation at University of California, Los Angeles (Los Angeles, Calif., USA) and Stanford University (Palo Alto, Calif., USA) in compliance with the Institutional Review Board regulations of each institution.
To test the effects of CREB inhibition on AML cells, four AML cell lines were treated with doses of Compound A ranging from 100 pM to 10 μM for 48 hours. […] KG-1 cells were less sensitive to Compound A and expressed lower levels of CREB compared to HL-60 cells (FIG. 2, panel A). […]

[3] = test system: primary AML patient bone marrow samples; assay: Single cell mass cytometry (CyTOF) of primary AML patient samples; type: cell-based, human
Procedure: These were stained for viability using cisplatin. Cells were fixed with 1.6% PFA (Electron Microscopy Sciences) for 10 min and washed with cell staining media (CSM). Fc receptor block was performed using Human TruStain FcX (Biolegend) following manufacturer's instructions. Cells were stained for surface proteins at room temperature for 30 min. Following staining, cells were washed twice with CSM and permeabilized with methanol pre-cooled to 4° C. for 10 min. Cells were then washed twice and stained for intracellular proteins for 30 min at room temperature. Surface and intracellular staining cocktails are listed in supplementary methods. Cells were washed and stained with 1 mL of 2000× iridium DNA intercalator (diluted 1:5000 in PBS with 1.6% PFA; DVS Sciences) overnight at 4° C. Data were acquired using internal metal isotope bead standards as previously described (Finck et al., “Normalization of mass cytometry data with bead standards.” Cytometry A. 2013; 83(5):483-94). Cell events were acquired at approximately 500 events per second on a CyTOF I (DVS Sciences/Fluidigm). All antibodies were also purchased from DVS Sciences/Fluidigm. Each patient sample was individually normalized to the internal bead standards prior to analysis. […]

T1 sequence (Q92793 with tags, fused parts or gaps, stated change not applied): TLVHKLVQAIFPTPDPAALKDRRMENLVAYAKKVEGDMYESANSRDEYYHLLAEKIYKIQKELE

N#Cc1ccc(NC(=O)c2cc3ccccc3cc2O)cc1 [Compound A, N-(4-cyanophenyl)-3-hydroxy-2-naphthamide]
reduction of binding of Compound A by KIX mutant lacking amino acids 586-602 [1]: ~70%
interaction with daunorubicin and cytarabine (isobolograms) [2]: synergistic
Combination Index (CI) ([2]; Compound A with cytarabine): less than 1
Combination Index (CI) ([2]; Compound A with daunorubicin): less than 1
cells in S-phase (CyTOF) ([3]; patient sample 97, CD34+CD38− subpopulation): < 0.1 % of total
Bcl-2 expression (CyTOF) ([3]; patient samples 96 and 186, all cell subpopulations, 2 µM, 48 hours): reduced Bcl-2 expression
